Measurements reported in the NIST ThermoML archive (doi:10.1016/j.fluid.2017.01.019).
Numbers after ± are expanded uncertainties.

Tests used:
[1] = 101.33 kPa, Liquid; for viscosity: Falling or rolling sphere viscometry; for speed of sound: Sing-around technique in a fixed-path interferometer; for mass density: Vibrating tube method
[2] = xn = mol fraction of the nth substance listed; settings: 100 kPa, Liquid, x2 = 0; for viscosity: Falling or rolling sphere viscometry; for mass density: Vibrating tube method; for speed of sound: Frequency=3 MHz, Sing-around technique in a fixed-path interferometer

CCOS(=O)(=O)[O-].CCn1cc[n+](C)c1 [1-ethyl-3-methylimidazolium ethyl sulfate]
[1]
Settings	mass density [kg/m3]	speed of sound [m/s]	viscosity [mPa·s]
298.15 K	1236.33 ± 8.3	1682.3 ± 5.1	96.21 ± 3.2
303.15 K	1232.93 ± 8.3	1670 ± 5.1	75.89 ± 2.2
308.15 K	1229.57 ± 8.2	1657.9 ± 5.1	60.73 ± 1.6
313.15 K	1226.21 ± 8.2	1645.9 ± 5.1	49.38 ± 1.3
318.15 K	1222.87 ± 8.1	1634.1 ± 5.1	40.93 ± 1.1
323.15 K	1219.54 ± 8.1	1622.3 ± 5.1	33.82 ± 0.89

CCCCO [butan-1-ol]
[1]
Settings	mass density [kg/m3]	speed of sound [m/s]	viscosity [mPa·s]
298.15 K	806.27 ± 0.24	1239.8 ± 1.3	2.61 ± 0.15
303.15 K	802.42 ± 0.24	1223.2 ± 1.3	2.31 ± 0.15
308.15 K	798.536 ± 0.24	1206.3 ± 1.3	2.07 ± 0.15
313.15 K	794.617 ± 0.24	1189.7 ± 1.2	1.85 ± 0.15
318.15 K	790.655 ± 0.24	1173.1 ± 1.2	1.66 ± 0.15
323.15 K	786.645 ± 0.24	1156.5 ± 1.2	1.5 ± 0.15

CO [methanol] + CCOS(=O)(=O)[O-].CCn1cc[n+](C)c1
[2]
Settings	mass density [kg/m3]	speed of sound [m/s]	viscosity [mPa·s]
298.15 K	786.884 ± 0.24	–	0.55 ± 0.15
303.15 K	782.158 ± 0.24	1086.9 ± 1.2	0.51 ± 0.15
308.15 K	777.414 ± 0.24	1070.6 ± 1.2	0.48 ± 0.15
313.15 K	772.64 ± 0.24	1054.5 ± 1.2	0.45 ± 0.15
318.15 K	767.844 ± 0.24	1038.5 ± 1.2	0.43 ± 0.15
323.15 K	763.028 ± 0.24	1022.5 ± 1.2	0.41 ± 0.15

CO [methanol]
[1]
Settings	mass density [kg/m3]	speed of sound [m/s]	viscosity [mPa·s]
298.15 K	786.884 ± 0.24	1103.3 ± 1.2	0.55 ± 0.15
303.15 K	782.158 ± 0.24	1086.9 ± 1.2	0.51 ± 0.15
308.15 K	777.414 ± 0.24	1070.6 ± 1.2	0.48 ± 0.15
313.15 K	772.64 ± 0.24	1054.5 ± 1.2	0.45 ± 0.15
318.15 K	767.844 ± 0.24	1038.5 ± 1.2	0.43 ± 0.15
323.15 K	763.028 ± 0.24	1022.5 ± 1.2	0.41 ± 0.15

CCCCO [butan-1-ol] + CCOS(=O)(=O)[O-].CCn1cc[n+](C)c1
[2]
Settings	mass density [kg/m3]	speed of sound [m/s]	viscosity [mPa·s]
289.15 K	806.27 ± 0.23	–	–
298.15 K	–	1241.1 ± 1.3	2.61 ± 0.15
303.15 K	802.42 ± 0.24	1224.3 ± 1.3	2.31 ± 0.15
308.15 K	798.536 ± 0.24	1207.5 ± 1.3	2.07 ± 0.15
313.15 K	794.617 ± 0.24	1190.9 ± 1.3	1.85 ± 0.15
318.15 K	790.655 ± 0.24	1174.2 ± 1.2	1.66 ± 0.15
323.15 K	786.645 ± 0.24	1157.6 ± 1.2	1.5 ± 0.15

CO [methanol] + CCCCO
[2]
Settings	mass density [kg/m3]	speed of sound [m/s]	viscosity [mPa·s]
293.15 K	–	–	0.55 ± 0.15
298.15 K	786.884 ± 0.24	1103.3 ± 1.2	–
303.15 K	782.158 ± 0.24	1086.9 ± 1.2	0.51 ± 0.15
308.15 K	777.414 ± 0.24	1070.6 ± 1.2	0.48 ± 0.15
313.15 K	772.64 ± 0.24	1054.5 ± 1.2	0.45 ± 0.15
318.15 K	767.844 ± 0.24	1038.5 ± 1.2	0.43 ± 0.15
323.15 K	763.028 ± 0.24	1022.5 ± 1.2	0.41 ± 0.15
